Measurements reported in ChEMBL document CHEMBL5370591, “A Potent and Narrow-Spectrum Antibacterial against Clostridioides difficile Infection” (J Med Chem, 2023).
Converted amounts (≈) assume the structure as drawn.

Tested on: Clostridioides difficile
Experiment: Antibacterial activity against Clostridium difficile ATCC 43255 measured after 48 hrs by two fold serial dilution method
Format: functional

Row | SMILES | MIC
1 | Oc1cccc(/C=C/c2nc(-c3ccc(OC4CCCC4)cc3)no2)c1 | > 128 µg/mL
2 | Fc1ccc2oc3ccc(-c4noc(-c5ccc6[nH]ccc6c5)n4)cc3c2c1 | > 128 µg/mL
3 | Oc1ccc(-c2nc(-c3ccc(Oc4ccccc4CBr)cc3)no2)cc1 | 8 µg/mL (≈ 18.9 µM)
4 | Nc1cc(-c2noc(-c3ccc(O)cc3)n2)ccc1Oc1ccccc1 | > 128 µg/mL
5 | CC(C)S(=O)(=O)Oc1ccc(-c2noc(-c3ccc(O)cc3)n2)cc1 | > 128 µg/mL
6 | O=Cc1ccc(-c2noc(-c3ccc(O)cc3)n2)cc1 | > 128 µg/mL
7 | Oc1ccc(-c2nc(-c3ccc(OC4CCNCC4)cc3)no2)cc1 | 64 µg/mL (≈ 190 µM)
8 | FC(F)(F)c1ccc(Oc2ccc(-c3noc(-c4n[nH]cc4NC4CCCCC4)n3)cc2)cc1 | > 128 µg/mL
9 | COc1cc(-c2nc(-c3ccc(Oc4ccc(C(F)(F)F)cc4)cc3)no2)cc(F)c1O | 16 µg/mL (≈ 35.8 µM)
10 | FC(F)(F)c1ccc(Oc2ccc(-c3noc(-c4c[nH]cn4)n3)cc2)cc1 | 8 µg/mL (≈ 21.5 µM)
11 | NC1CCN(c2ccc(-c3noc(-c4ccc(O)cc4)n3)cc2)CC1 | 64 µg/mL (≈ 190 µM)
12 | FC(F)(F)c1ccc(Oc2ccc(-c3noc(-c4n[nH]cc4Cl)n3)cc2)cc1 | > 128 µg/mL
13 | Oc1ccc(-c2nc(-c3ccc4oc5ccccc5c4c3)no2)cc1 | > 128 µg/mL
14 | Oc1ccc(-c2nc(-c3ccc(Oc4ccc(C(F)(F)F)cc4)cc3)no2)cn1 | > 128 µg/mL
15 | O=C(O)c1ccc(-c2nc(-c3ccc(OC4CCCC4)cc3)no2)cc1 | > 128 µg/mL
16 | CS(=O)(=O)Nc1ccc(-c2nc(-c3ccc(OC4CCCC4)cc3)no2)cc1 | > 128 µg/mL
17 | Nc1ccc(-c2nc(-c3ccc(OC4CCCC4)cc3)no2)cc1 | > 128 µg/mL
18 | Oc1ccc(-c2nc(-c3ccc(OC4CCC4)cc3)no2)cc1 | > 128 µg/mL
19 | CCCCNc1c[nH]nc1-c1nc(-c2ccc(Oc3ccc(C(F)(F)F)cc3)cc2)no1 | > 128 µg/mL
20 | OCC#Cc1c[nH]nc1-c1nc(-c2ccc(Oc3ccc(C(F)(F)F)cc3)cc2)no1 | > 128 µg/mL
21 | Oc1ccc(-c2nc(-c3ccc4c(c3)OCO4)no2)cc1 | > 128 µg/mL
22 | Nc1c[nH]nc1-c1nc(-c2ccc(Oc3ccc(C(F)(F)F)cc3)cc2)no1 | > 128 µg/mL

Row | SMILES | MIC
23 | Oc1ccc(-c2nc(-c3ccc(OC4CCOC4)cc3)no2)cc1 (stereo not drawn) | > 128 µg/mL
24 | O=C1C[C@H](c2nc(-c3ccc(Oc4ccc(C(F)(F)F)cc4)cc3)no2)CN1 | > 128 µg/mL
25 | Cl.Oc1ccc(-c2nc(-c3ccc(OC4CCNC4)cc3)no2)cc1 (stereo not drawn) | 64 µg/mL
26 | Oc1ccc(-c2nc(-c3ccc(Oc4ccc(C(F)(F)F)cc4)nc3)no2)cc1 | > 128 µg/mL
27 | CCCCOc1ccc(-c2noc(-c3ccc(O)cc3)n2)cc1 | > 128 µg/mL
28 | COc1ccc2oc3ccc(-c4noc(-c5n[nH]cc5[N+](=O)[O-])n4)cc3c2c1 | 64 µg/mL (≈ 170 µM)
29 | O=[N+]([O-])c1cn(CCO)c(-c2nc(-c3ccc(OC4CCCC4)cc3)no2)n1 | > 128 µg/mL
30 | O=C(c1ccc(-c2noc(-c3ccc(O)cc3)n2)cc1)C(F)(F)F | 8 µg/mL (≈ 23.9 µM)
31 | Oc1nc(-c2ccc(OC3CCCC3)cc2)no1 | 64 µg/mL (≈ 260 µM)
32 | FC(F)(F)c1ccc(Oc2ccc(-c3noc(-c4n[nH]cc4Nc4n[nH]c5ccccc45)n3)cc2)cc1 | > 128 µg/mL
33 | CCC(C)Nc1c[nH]nc1-c1nc(-c2ccc(Oc3ccc(C(F)(F)F)cc3)cc2)no1 (stereo not drawn) | > 128 µg/mL
34 | FC(F)(F)c1ccc(Oc2ccc(-c3noc(-c4cc[nH]n4)n3)cc2)cc1 | > 128 µg/mL
35 | O=C1C[C@@H](c2nc(-c3ccc(Oc4ccc(C(F)(F)F)cc4)cc3)no2)CN1 | > 128 µg/mL
36 | Oc1ccc(-n2cc(-c3ccc(Oc4ccccc4)cc3)nn2)cc1 | > 128 µg/mL
37 | Oc1ccc(-c2nc(-c3ccc(OC4CC4)cc3)no2)cc1 | > 128 µg/mL
38 | Cl.O=[N+]([O-])c1c[nH]c(-c2nc(-c3ccc(OC4CCNCC4)cc3)no2)n1 | > 128 µg/mL
39 | O=C(Nc1c[nH]nc1-c1nc(-c2ccc(Oc3ccc(C(F)(F)F)cc3)cc2)no1)c1ccccn1 | > 128 µg/mL
40 | c1nc2cc(-c3nc(-c4ccc(OC5CCCC5)cc4)no3)ccc2[nH]1 | 128 µg/mL (≈ 370 µM)
41 | COc1ccc(-c2noc(-c3ccc(O)cc3)n2)cc1OC | > 128 µg/mL
42 | Nc1cncc(-c2nc(-c3ccc(Oc4ccc(C(F)(F)F)cc4)cc3)no2)c1 | > 128 µg/mL
43 | Cl.NCCCCc1nc(-c2ccc(OC3CCCC3)cc2)no1 | 128 µg/mL
